Results reported in patent publication US12103926B2, “Compounds for treating huntington's disease” (PTC THERAPEUTICS, INC., priority 2018, dated 2024).

These compounds were tested on Endogenous Huntingtin Protein (assay: Endogenous Huntingtin Protein Assay (ELISA-based MSD electrochemiluminescence assay)). Conditions: MW1 (expanded polyglutamine) or MAB2166 capture antibody; lysates.
Format: cell-based
Method: Compounds of Formula (I) were tested using the Meso Scale Discovery (MSD) Assay provided in International Application No. PCT/US2016/066042, filed on Dec. 11, 2016 and claiming priority to United States Provisional Application U.S. 62/265,652 filed on Dec. 10, 2015, the entire contents of which are incorporated herein by reference.
The Endogenous Huntingtin Protein assay used in Example 1 was developed using the ELISA-based MSD electrochemiluminescence assay platform.
Endogenous Huntingtin Protein Assay
Meso Scale Discovery (MSD) 96-well or 384-well plates were coated overnight at 4° C. with MW1 (expanded polyglutamine) or MAB2166 monoclonal antibody (for capture) at a concentration of 1 μg/mL in PBS (30 μL per well). Plates were then washed three times with 300 μL wash buffer (0.05% Tween-20 in PBS) and blocked (100 μL blocking buffer; 5% BSA in PBS) for 4-5 hours at room temperature with rotational shaking and then washed three times with wash buffer.
Samples (25 μL) were transferred to the antibody-coated MSD plate and incubated overnight at 4° C. After removal of the lysates, the plate was washed three times with wash buffer, and 25 μL of #5656S (Cell signaling; rabbit monoclonal) secondary antibody (diluted to 0.25 μg/mL in 0.05% Tween-20 in blocking buffer) was added to each well and incubated with shaking for 1 Hour at room temperature. Following incubation with the secondary antibody, the wells were rinsed with wash buffer after which 25 μL of goat anti-rabbit SULFO TAG secondary detection antibody (required aspect of the MSD system) (diluted to 0.25 μg/mL in 0.05% Tween-20 in blocking buffer) was added to each well and incubated with shaking for 1 hour at room temperature. After rinsing three times with wash buffer, 150 μL of read buffer T with surfactant (MSD) were added to each empty well, and the plate was imaged on a SI 6000 imager (MSD) according to manufacturers' instructions provided for 96- or 384-well plates.

| Structure (SMILES) | IC50 [nM] |
| --- | --- |
| CN(c1cnc(-c2ccc(-n3nccn3)cc2O)cn1)C1CC(C)(C)NC(C)(C)C1 [Cpd 61, 2-{5-[methyl(2,2,6,6-tetramethylpiperidin-4-yl)amino]pyrazin-2-yl}-5-(2H-1,2,3-triazol-2-yl)phenol] | 100 to 500 |
| CC(C)(C)NC1CCN(c2cnc(-c3ccc(-c4cn[nH]c4)c(F)c3F)cn2)C1 (centres unmarked) [Cpd 63, N-tert-butyl-1-{5-[2,3-difluoro-4-(1H-pyrazol-4-yl)phenyl]pyrazin-2-yl}pyrrolidin-3-amine] | 100 to 500 |
| CC(C)(C)NC1CCN(c2cnc(-c3ccc(-c4c[nH]nc4F)cc3O)cn2)C1 (centres unmarked) [Cpd 65, 2-{5-[3-(tert-butylamino)pyrrolidin-1-yl]pyrazin-2-yl}-5-(3-fluoro-1H-pyrazol-4-yl)phenol] | < 100 |

Results, then the compound that gave them:

| IC50 [nM] | Structure (SMILES) |
| --- | --- |
| < 100 | Cn1cc(-c2ccc(-c3cnc(N4CCC(NC(C)(C)C)C4)cn3)c(O)c2)cn1 (centres unmarked) [Cpd 62, 2-{5-[3-(tert-butylamino)pyrrolidin-1-yl]pyrazin-2-yl}-5-(1-methyl-1H-pyrazol-4-yl)phenol] |
| < 100 | CC(C)(C)NC1CCN(c2cnc(-c3cc(F)c(-c4cn[nH]c4)cc3F)cn2)C1 (centres unmarked) [Cpd 64, N-tert-butyl-1-{5-[2,5-difluoro-4-(1H-pyrazol-4-yl)phenyl]pyrazin-2-yl}pyrrolidin-3-amine] |
